In PubChem BioAssay (NCI):
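Cultured in 96-well plates, cells were exposed to test compound for 48 hours across five concentrations. At the TGI there is no net growth.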

Legend:
Assay in all cases: DTP human tumour cell line panel, 48 h
[1] = tested on: MDA-MB-435
[2] = tested on: HCC-2998 colon
[3] = tested on: A549 NSCLC
[4] = tested on: MDA-N
[5] = tested on: SN12C renal
[6] = tested on: OVCAR-5 ovarian
[7] = tested on: SK-MEL-28 melanoma
[8] = tested on: A498 renal
[9] = tested on: HT29 colon
[10] = tested on: NCI-H23 lung
[11] = tested on: K-562 leukemia
[12] = tested on: LOX IMVI melanoma
[13] = tested on: UO-31 renal
[14] = tested on: TK-10 renal
[15] = tested on: OVCAR-4 ovarian
[16] = tested on: SF-539 CNS
[17] = tested on: ACHN renal
[18] = tested on: MDA-MB-231 breast
[19] = tested on: RPMI-8226 leukemia
[20] = tested on: SW-620 colon
[21] = tested on: NCI-H522 lung
[22] = tested on: COLO 205 colon
[23] = tested on: U251 CNS
[24] = tested on: MALME-3M melanoma
[25] = tested on: HL-60(TB) leukemia
[26] = tested on: KM12 colon
[27] = tested on: PC-3 prostate
[28] = tested on: NCI/ADR-RES ovarian
[29] = tested on: UACC-62 melanoma
[30] = tested on: SF-295 CNS
[31] = tested on: 786-0 renal
[32] = tested on: UACC-257 melanoma
[33] = tested on: CCRF-CEM leukemia
[34] = tested on: SK-MEL-2 melanoma
[35] = tested on: NCI-H226 lung
[36] = tested on: SNB-75 CNS
[37] = tested on: OVCAR-3 ovarian
[38] = tested on: HCT-116 colon
[39] = tested on: M14 melanoma
[40] = tested on: HCT-15 colon
[41] = tested on: BT-549 breast
[42] = tested on: SK-OV-3 ovarian
[43] = tested on: OVCAR-8 ovarian
[44] = tested on: HOP-62 NSCLC
[45] = tested on: CAKI-1 renal
[46] = tested on: MOLT-4 leukemia
[47] = tested on: T-47D breast
[48] = tested on: SK-MEL-5 melanoma
[49] = tested on: IGROV1 ovarian
[50] = tested on: EKVX NSCLC
[51] = tested on: MCF7 breast
[52] = tested on: HS 578T breast
[53] = tested on: NCI-H460 lung
[54] = tested on: SF-268 CNS
[55] = tested on: DU-145 prostate
[56] = tested on: SNB-19 CNS
[57] = tested on: RXF 393 renal
[58] = tested on: HOP-92 NSCLC
[59] = tested on: SR leukemia

CSc1nncc2[nH]c(C)nc12
TGI [1]: > 100 µM
TGI [2]: > 100 µM
TGI [3]: > 100 µM
TGI [4]: > 100 µM
TGI [5]: > 100 µM
TGI [6]: > 100 µM
TGI [7]: > 100 µM
TGI [8]: > 100 µM
TGI [9]: > 100 µM
TGI [10]: > 100 µM
TGI [11]: > 100 µM
TGI [12]: > 100 µM
TGI [13]: > 100 µM
TGI [14]: > 100 µM
TGI [15]: > 100 µM
TGI [16]: > 100 µM
TGI [17]: > 100 µM
TGI [18]: > 100 µM
TGI [19]: > 100 µM
TGI [20]: > 100 µM
TGI [21]: > 100 µM
TGI [22]: > 100 µM
TGI [23]: > 100 µM
TGI [24]: > 100 µM
TGI [25]: > 100 µM
TGI [26]: > 100 µM
TGI [27]: > 100 µM
TGI [28]: > 100 µM
TGI [29]: > 100 µM
TGI [30]: > 100 µM
TGI [31]: > 100 µM
TGI [32]: > 100 µM
TGI [33]: > 100 µM
TGI [34]: > 100 µM
TGI [35]: > 100 µM
TGI [36]: > 100 µM
TGI [37]: > 100 µM
TGI [38]: > 100 µM
TGI [39]: > 100 µM
TGI [40]: > 100 µM
TGI [41]: > 100 µM
TGI [42]: > 100 µM
TGI [43]: > 100 µM
TGI [44]: > 100 µM
TGI [45]: > 100 µM
TGI [46]: > 100 µM
TGI [47]: > 100 µM
TGI [48]: > 100 µM
TGI [49]: > 100 µM
TGI [50]: > 100 µM
TGI [51]: > 100 µM

COc1ccc(/C=N/n2c(-c3ccccc3)n[nH]c2=O)cc1
TGI [52]: 93.7 µM
TGI [1]: > 100 µM
TGI [2]: > 100 µM
TGI [3]: > 100 µM
TGI [4]: > 100 µM
TGI [5]: > 100 µM
TGI [6]: > 100 µM
TGI [7]: > 100 µM
TGI [8]: > 100 µM
TGI [9]: > 100 µM
TGI [10]: > 100 µM
TGI [11]: > 100 µM
TGI [13]: > 100 µM
TGI [15]: > 100 µM
TGI [16]: > 100 µM
TGI [17]: > 100 µM
TGI [18]: > 100 µM
TGI [19]: > 100 µM
TGI [20]: > 100 µM
TGI [22]: > 100 µM
TGI [23]: > 100 µM
TGI [53]: > 100 µM
TGI [24]: > 100 µM
TGI [26]: > 100 µM
TGI [27]: > 100 µM
TGI [28]: > 100 µM
TGI [29]: > 100 µM
TGI [30]: > 100 µM
TGI [31]: > 100 µM
TGI [32]: > 100 µM
TGI [54]: > 100 µM
TGI [33]: > 100 µM
TGI [34]: > 100 µM
TGI [35]: > 100 µM
TGI [36]: > 100 µM
TGI [37]: > 100 µM
TGI [38]: > 100 µM
TGI [39]: > 100 µM
TGI [40]: > 100 µM
TGI [41]: > 100 µM
TGI [55]: > 100 µM
TGI [42]: > 100 µM
TGI [43]: > 100 µM
TGI [44]: > 100 µM
TGI [45]: > 100 µM
TGI [46]: > 100 µM
TGI [56]: > 100 µM
TGI [47]: > 100 µM
TGI [50]: > 100 µM
TGI [51]: > 100 µM

CC12CC(C#N)(C#N)C(C#N)(CO1)C(=N)O2 (centres undefined)
TGI [52]: > 100 µM
TGI [1]: > 100 µM
TGI [2]: > 100 µM
TGI [3]: > 100 µM
TGI [4]: > 100 µM
TGI [5]: > 100 µM
TGI [6]: > 100 µM
TGI [7]: > 100 µM
TGI [8]: > 100 µM
TGI [9]: > 100 µM
TGI [10]: > 100 µM
TGI [11]: > 100 µM
TGI [12]: > 100 µM
TGI [57]: > 100 µM
TGI [13]: > 100 µM
TGI [14]: > 100 µM
TGI [15]: > 100 µM
TGI [16]: > 100 µM
TGI [17]: > 100 µM
TGI [18]: > 100 µM
TGI [20]: > 100 µM
TGI [22]: > 100 µM
TGI [23]: > 100 µM
TGI [53]: > 100 µM
TGI [24]: 90.8 µM
TGI [25]: > 100 µM
TGI [26]: > 100 µM
TGI [27]: > 100 µM
TGI [28]: > 100 µM
TGI [29]: > 100 µM
TGI [30]: > 100 µM
TGI [31]: > 100 µM
TGI [32]: > 100 µM
TGI [54]: > 100 µM
TGI [33]: 69.1 µM
TGI [34]: > 100 µM
TGI [35]: > 100 µM
TGI [36]: > 100 µM
TGI [37]: > 100 µM
TGI [38]: > 100 µM
TGI [39]: > 100 µM
TGI [40]: > 100 µM
TGI [41]: > 100 µM
TGI [55]: > 100 µM
TGI [42]: > 100 µM
TGI [43]: > 100 µM
TGI [58]: > 100 µM
TGI [45]: > 100 µM
TGI [46]: > 100 µM
TGI [56]: > 100 µM
TGI [47]: > 100 µM
TGI [48]: > 100 µM
TGI [49]: > 100 µM
TGI [50]: > 100 µM
TGI [51]: > 100 µM

NC12Oc3cc(O)cc(O)c3C1(c1ccc(Cl)cc1)c1c(O)cc(O)cc1O2 (centres undefined)
TGI [52]: > 100 µM
TGI [1]: > 100 µM
TGI [2]: > 100 µM
TGI [3]: > 100 µM
TGI [4]: > 100 µM
TGI [5]: > 100 µM
TGI [6]: > 100 µM
TGI [7]: > 100 µM
TGI [8]: > 100 µM
TGI [9]: > 100 µM
TGI [10]: > 100 µM
TGI [11]: > 100 µM
TGI [12]: > 100 µM
TGI [57]: > 100 µM
TGI [13]: > 100 µM
TGI [14]: > 100 µM
TGI [15]: > 100 µM
TGI [16]: > 100 µM
TGI [17]: > 100 µM
TGI [19]: > 100 µM
TGI [20]: > 100 µM
TGI [21]: 92.9 µM
TGI [22]: > 100 µM
TGI [23]: > 100 µM
TGI [53]: > 100 µM
TGI [24]: > 100 µM
TGI [25]: > 100 µM
TGI [26]: > 100 µM
TGI [27]: > 100 µM
TGI [28]: > 100 µM
TGI [29]: > 100 µM
TGI [30]: > 100 µM
TGI [31]: > 100 µM
TGI [32]: > 100 µM
TGI [54]: > 100 µM
TGI [33]: > 100 µM
TGI [34]: > 100 µM
TGI [35]: > 100 µM
TGI [36]: > 100 µM
TGI [37]: > 100 µM
TGI [38]: > 100 µM
TGI [39]: > 100 µM
TGI [40]: > 100 µM
TGI [41]: > 100 µM
TGI [59]: > 100 µM
TGI [55]: > 100 µM
TGI [42]: > 100 µM
TGI [43]: > 100 µM
TGI [58]: > 100 µM
TGI [44]: > 100 µM
TGI [45]: > 100 µM
TGI [46]: > 100 µM
TGI [56]: > 100 µM
TGI [47]: > 100 µM
TGI [48]: > 100 µM
TGI [49]: > 100 µM
TGI [50]: > 100 µM
TGI [51]: > 100 µM
